Source: US20240041796A1, “ANTI-INFLAMMATORY COMPOSITION COMPRISING N-BENZYL-N-METHYLDECAN-1-AMINE OR A DERIVATIVE THEREOF AS AN ACTIVE INGREDIENT” (PUSAN NATIONAL UNIVERSITY INDUSTRY-UNIVERSITY COOPERATION …, priority 2022, published 2024)

What was measured:
DBA/J1 male mice = experiment: Rheumatoid arthritis model induced by type 2 bovine collagen, oral administration; format: in vivo, mouse; settings: for inflammation and synovitis of joint tissues: H&E stained joint sections, FIG. 5A-B; for expression of HO-1 in the joints / expression of Nrf2 in the joints: immunoblotting, FIG. 6B; for length of the spleen / weight of the spleen / swelling of the feet / weight loss caused by rheumatism induced by collagen: oral 20 mg/body weight Kg for 21 days; for length of the spleen / weight of the spleen: vs control, FIG. 4C-D; for swelling of the feet: vs soybean oil control, FIG. 4A-B; for weight loss caused by rheumatism induced by collagen: FIG. 4B
Procedure: Rheumatoid arthritis was induced in 7-week-old DBA/J1 male mice. We thoroughly mixed the type 2 collagen at a concentration of 2 mg/mL with CFA (Complete Freund's Adjuvant) in the mixing ratio 1:1. We injected 0.1 mL (100 μg) of the mixture intradermally to a position away 2 cm from a base of the tail. After 2 weeks, we mixed the type 2 collagen with IFA instead of CFA in the mixing ratio 1:1. We administered the mixture subcutaneously to the base of the tail in the same amount and volume as those in the first injection. After 3 days, we grouped the mice into 4 groups and performed second administration thereto.
In one example, BMDA (FMJ-G0) and a derivative thereof (DMMA, FMJ-G4) at a concentration of 2.5 mg/mL were orally administered to male mice in a volume of 200 μL (20 mg/body weight Kg) for 21 days. In a control group, soybean oil was orally administered thereto.
During the experiment, the insteps of the forelimbs and hindlimbs were measured with a caliper three times a week, and the mice were suffocated, and joint areas were prepared for immunohistochemical staining and immunoblotting. Moreover, the spleen was removed therefrom and a size thereof was measured. Further, blood was drawn through the hepatic portal vein to prepare serum. A specific method was as follows. • 1) Paraffin sections were prepared as the joints including the ankles of the forelimbs. At this time, decalcification is performed first, followed by sectioning the same at a thickness of 4 μm, and H&E staining. • 2) The cell lysis solution was added thereto, and then we crushed the tissue with a sonicator, which was prepared for immunoblotting. • 3) Trisol solution was added to the joint tissue, the tissue was pulverized in a sonicator, and centrifuged, and the Trisol solution was used to precipitate proteins and DNA for entire RNA separation, and the entire RNA was collected from the supernatant obtained via the centrifugation. c-DNA was synthesized using oligo-dT primer and reverse transcriptase, and then, quantitative qRT-PCR and immunoblotting were performed thereon.

[1] = test system: human THP-1 monocytic cell line; experiment: LPS-induced inflammation-related signal transduction in THP-1 cells, immunoblotting; format: cell-based; settings: THP-1 cultured 3 hours with compound, then LPS 1 μg/ml 1 hour; FIG. 2A-B
Procedure: Each of BMDA (FMJ-G0) or DMMA (FMJ-G4) was added to a culture medium at concentrations of […], and 1 μM in a 6-well plate. The human THP-1 monocytic cell line (5×10^5 cells/well) was cultured therein for 3 hours. Each well was treated with lipopolysaccharide at a concentration of 1 μg/ml. After 1 hour, centrifugation was performed to obtain a supernatant which was used in an ELISA for inflammatory cytokine evaluation. Cell lysate was added to the collected THP-1 cells for immunoblotting.

Balb/C mice = experiment: DNCB-induced atopic dermatitis model, cosmetic cream applied to the skin; format: in vivo, mouse; settings: for DNCB-induced atopic dermatitis (level of dermatitis): cosmetic cream (0.3% active; Lidomax ointment 0.15%) applied to the back for 2 weeks, 9C; for DNCB-induced atopic dermatitis (level of dermatitis) / hair regrowth on the skin: FIG. 9A; for size of the (inguinal) lymph node: cosmetic cream (Lidomax ointment 0.15%) applied for 2 weeks, FIG. 9B, 9D; for hair regrowth on the skin: cosmetic cream applied for 2 weeks; for thickness of the dermis: hematoxylin-eosin stained skin sections, FIG. 10A-B; for phosphorylation level of JNK in skin / phosphorylation level of NF-KB in skin / phosphorylation level of p38MAPK in skin: immunoblotting, FIG. 11D; for phosphorylation level of JNK in skin / phosphorylation level of NF-KB in skin / phosphorylation level of p38MAPK in skin / concentration of IgE in the blood: vs control group; for amount of COX2 transcriptome in skin / amount of IL-1β transcriptome in skin / amount of IL-6 transcriptome in skin / amount of TNF-α transcriptome in skin / amount of iNOS transcriptome in skin: qRT-PCR, vs DNCB control, FIG. 11A-C; for concentration of IgE in the blood: serum ELISA, 2 weeks of treatment, FIG. 10D; for invasion of mast cells into the dermis: toluidine-blue staining, FIG. 10C
Procedure: Wed added 0.3 g of olive wax to 2 mL of soybean oil (Sigma-Aldrich) in a glass tube (15 ml), and put the tube in a 75° C. water-bath, and performed a double boiling thereon to melt the olive wax for 30 minutes while vortexing the tube at 10 minute interval. Under the same conditions, 7.7 ml of purified water was put into a 75° C. water-bath and heated the same for 30 minutes. Next, 7.5 ml of purified water was poured into the tube containing the olive wax and the mixture was stirred well via vortexing. Then, […] (0.3%) of each of BMDA and derivatives thereof (FMJ-G0, FMJ-G4, FMJ-G1, FMJ-G2, FMJ-G3) as synthesized in Examples 1 and 3 were added to the mixture, followed by stirring. The reaction product was cooled in ice and prepared in the form of a cosmetic cream.
In order to induce atopic dermatitis using 5-week-old Balb/C mice, hair on the back of the mouse was removed therefrom, and after one day, a 0.5% solution in which DNCB (2,4-dinitrochlorobenzne) is mixed with acetone and olive oil (3:1) was prepared, and then was applied thereon for 3 consecutive days by 150 μL per each day. Thereafter, the solution of the same concentration was applied to the back area from which the hair was removed twice a week and this process continued for 2 weeks. Further, to alleviate atopic dermatitis induced in this way, the cosmetic cream containing each of BMDA (FMJ-G0) and the derivatives thereof (FMJ-G4, FMJ-G1, FMJ-G2, FMJ-G3) of the present disclosure as prepared above was applied to the back of rats with the induced atopic dermatitis for 2 weeks, and then, changes in skin inflammation were examined.
The experimental results of FIG. 10A and FIG. 10B was obtained as follows as in FIG. 9. The skin tissue was removed from the back of the mouse in the group, and was placed fixedly in 10% formaldehyde for 48 hours, and paraffin pieces were made, and the pieces were thinly sliced so as to have a thickness of 4 μm and was subjected to hematoxylin-esoin staining. Then, whether the damaged skin tissue was recovered by each of BMDA (FMJ-G0) and DMMA (FMJ-G4) was examined using an optical microscope equipped with a Leica application (Leica Microsystems, Switzerland).
To this end, the atopic dermatitis is induced in FIG. 9, and on 2 weeks since the treatment with BMDA (FMJ-G0) and DMMA (FMJ-G4), blood (500 ul) is collected from the hepatic veins of the rats of the above groups, and left at room temperature for 30 minutes. Then, serum was separated and prepared via centrifugation, and then, the IgE concentration related to the allergic reaction was measured through ELISA using the serum thus prepared.
Anti-mouse IgE (Pharmingen, CA, USA) was diluted with PBS (pH 7.4) on a 96-well plate, 100 μL thereof was coated on each 96-well plate, and then left at 4° C. for 12 hours. The plate was washed with PBS containing 0.05% tween. Blocking was performed thereon for 1 hour with PBS containing 1% BSA, 5% sucrose, and 0.05% NaN3. Washing was performed thereon several times using washing buffer. Recombinant IgE and serum were added thereto, and reaction occurred at 37° C. for 2 hours, and each well was washed again, and biotinylated IgE (Pharmingen, CA, USA) was added thereto. Reaction occurred for 2 hours. After washing the well, avidin peroxidase was added thereto and reaction occurred at 37° C. for 30 minutes. Then, the well was washed and then, ABTS solution as a substrate was added thereto. Absorbance was measured at 405 nm using ELISA reader (Epoch2, Biotek, VT, USA).
FIG. 11 show data obtained as follows. The atopic dermatitis was induced as described in FIG. 9, and on 2 weeks since the treatment with BMDA or DMMA (FMJ-G0/G4), a portion of the skin tissue of the rats in the groups were put in Trisol solution and the tissue was crushed in a sonicator. […]

SMILES | inflammation and synovitis of joint tissues (DBA/J1 male mice) | expression of HO-1 in the joints (DBA/J1 male mice) | expression of Nrf2 in the joints (DBA/J1 male mice) | length of the spleen (DBA/J1 male mice) | weight of the spleen (DBA/J1 male mice) | swelling of the feet (DBA/J1 male mice) | weight loss caused by rheumatism induced by collagen (DBA/J1 male mice) | activity of JNK activated by LPS [1] | activity of p38 MAPK activated by LPS [1] | inflammation-related signaling pathway leading to p38 MAPK-MK2 [1] | DNCB-induced atopic dermatitis (level of dermatitis) (Balb/C mice) | size of the (inguinal) lymph node (Balb/C mice) | hair regrowth on the skin (Balb/C mice) | thickness of the dermis (Balb/C mice) | phosphorylation level of JNK in skin (Balb/C mice) | phosphorylation level of NF-KB in skin (Balb/C mice) | phosphorylation level of p38MAPK in skin (Balb/C mice) | amount of COX2 transcriptome in skin (Balb/C mice) | amount of IL-1β transcriptome in skin (Balb/C mice) | amount of IL-6 transcriptome in skin (Balb/C mice) | also measured
CCCCCCCCCCN(C)Cc1ccccc1 [BMDA, N-benzyl-N-methyldecan-1-amine] | significantly reduced | increased | increased | reduced | reduced | much smaller | did not restore | suppressed | suppressed | inhibited | significantly alleviated | the same as that of the spleen | observed | significantly reduced | significantly lowered | significantly lowered | significantly lowered | markedly lowered | markedly lowered | markedly lowered | amount of TNF-α transcriptome in skin (Balb/C mice): markedly lowered; amount of iNOS transcriptome in skin (Balb/C mice): markedly lowered; concentration of IgE in the blood (Balb/C mice): significantly lower; invasion of mast cells into the dermis (Balb/C mice): prevents
CCCCCCCCCCN(C)Cc1ccc(OC)cc1 [DMMA, Decyl-(4-methoxy-benzyl)-methyl-amine] | significantly reduced | increased | increased | reduced | reduced | much smaller | did not restore | suppressed | suppressed | inhibited | significantly alleviated | the same as that of the spleen | observed | significantly reduced | significantly lowered | significantly lowered | significantly lowered | markedly lowered | markedly lowered | markedly lowered | amount of TNF-α transcriptome in skin (Balb/C mice): markedly lowered; amount of iNOS transcriptome in skin (Balb/C mice): markedly lowered; concentration of IgE in the blood (Balb/C mice): significantly lower; invasion of mast cells into the dermis (Balb/C mice): prevents
